Oligonucleotides are written 5' to 3', each unit as a sugar letter and its base; * is a phosphorothioate linkage, no mark a phosphodiester; rarer units and linkages stand in square brackets, end groups in braces. Plain capitals give the bases only. e = 2'-O-(2-methoxyethyl) (MOE); k = constrained ethyl (cEt); [5mC] = 5-methylcytosine; d = 2'-deoxy (DNA)
Tests used:
AR mRNA [1] = assay: Dose-dependent antisense inhibition of human AR in HuVEC cells (electroporation, qRT-PCR RTS3559, IC50); assay type: cell-based; conditions: HuVEC
Procedure: (§1) After a treatment period of approximately 16 hours, RNA was isolated from the cells and AR mRNA levels were measured by quantitative real-time PCR. Human AR primer probe set RTS3559 was used to measure mRNA levels. AR mRNA levels were adjusted according to total RNA content, as measured by RIBOGREEN®. […] The antisense oligonucleotides were tested in a series of experiments that had similar culture conditions.
as §1, §1, §1, §1
(§2) After a treatment period of approximately 16 hours, RNA was isolated from the cells and AR mRNA levels were measured by quantitative real-time PCR. Human AR primer probe set RTS3559 was used to measure mRNA levels. AR mRNA levels were adjusted according to total RNA content, as measured by RIBOGREEN®.
as §2

AR mRNA [2] = assay: Antisense inhibition of human AR in HuVEC cells, single concentration (electroporation, qRT-PCR RTS3559); assay type: cell-based
Procedure: Antisense oligonucleotides were designed targeting an AR nucleic acid and were tested for their effects on AR mRNA in vitro. The antisense oligonucleotides were tested in a series of experiments that had similar culture conditions. […] Human primer probe set RTS3559 (forward sequence [NT], designated herein as SEQ ID NO: 9; reverse sequence [NT], designated herein as SEQ ID NO: 10; probe sequence [NT], designated herein as SEQ ID NO: 11) was used to measure mRNA levels. AR mRNA levels were adjusted according to total RNA content, as measured by RIBOGREEN®. […] A total of 155 oligonucleotides were tested. Additional antisense oligonucleotides were designed targeting an AR nucleic acid and were tested for their effects on AR mRNA in vitro. […] Human primer probe set RTS3559 was used to measure mRNA levels. AR mRNA levels were adjusted according to total RNA content, as measured by RIBOGREEN®. […] A total of 82 oligonucleotides were tested. Additional antisense oligonucleotides were designed targeting an AR nucleic acid and were tested for their effects on AR mRNA in vitro. […] Human primer probe set RTS3559 was used to measure mRNA levels. AR mRNA levels were adjusted according to total RNA content, as measured by RIBOGREEN®. […] A total of 40 oligonucleotides were tested. Additional antisense oligonucleotides were designed targeting an AR nucleic acid and were tested for their effects on AR mRNA in vitro. […] Human primer probe set RTS3559 was used to measure mRNA levels. AR mRNA levels were adjusted according to total RNA content, as measured by RIBOGREEN®. […] A total of 75 oligonucleotides were tested. Additional antisense oligonucleotides were designed targeting an AR nucleic acid and were tested for their effects on AR mRNA in vitro. […] Human primer probe set RTS3559 was used to measure mRNA levels. AR mRNA levels were adjusted according to total RNA content, as measured by RIBOGREEN®. […] A total of 616 oligonucleotides were tested. Additional antisense oligonucleotides were designed targeting an AR nucleic acid and were tested for their effects on AR mRNA in vitro. […] Human primer probe set RTS3559 was used to measure mRNA levels. AR mRNA levels were adjusted according to total RNA content, as measured by RIBOGREEN®. […] A total of 385 oligonucleotides were tested.

[3] = Table 34, electroporation, approximately 16 hours
[4] = Table 23, 500 nM oligonucleotide, electroporation, approximately 24 hours, relative to untreated control
[5] = 500 nM ASO, electroporation, ~24 h, Table 1
[6] = Table 36, electroporation, approximately 16 hours
[7] = Table 32, electroporation, approximately 16 hours
[8] = Table 20, 500 nM oligonucleotide, electroporation, approximately 24 hours, relative to untreated control
[9] = Table 35, electroporation, approximately 16 hours
[10] = Table 29, electroporation, approximately 16 hours

584139 (kT*k[5mC]*kT*dA*dA*dA*d[5mC]*dA*dT*dG*dA*d[5mC]*dG*kG*kT*kT; antisense) [compound 584139]
percent inhibition of AR, 46.9 nM (AR mRNA [1]; [3]): 13%
percent inhibition of AR, 187.5 nM (AR mRNA [1]; [3]): 33%
percent inhibition of AR, 750.0 nM (AR mRNA [1]; [3]): 56%
percent inhibition of AR, 3000.0 nM (AR mRNA [1]; [3]): 85%
IC50 (AR mRNA [1]; [3]): 400 nM
% inhibition (AR mRNA [2]; [4]): 37%

579670 (antisense eT*kG*kA*eT*kT*kT*dA*dA*dT*dG*dG*dT*dT*kG*k[5mC]*kA) [compound 579670]
percent inhibition of AR (AR mRNA [1]; 62.5 nM, ~16 h, Table 11): 27%
percent inhibition of AR (AR mRNA [1]; 125.0 nM, ~16 h, Table 11): 28%
percent inhibition of AR (AR mRNA [1]; 500.0 nM, ~16 h, Table 11): 75%
percent inhibition of AR (AR mRNA [1]; 1000.0 nM, ~16 h, Table 11): 70%
IC50 (AR mRNA [1]; ~16 h, Table 11): 236 nM

549386 (kG*k[5mC]*kT*dT*d[5mC]*dA*dT*d[5mC]*dT*d[5mC]*d[5mC]*dA*d[5mC]*kA*kG*kA; antisense) [compound 549386]
% inhibition (AR mRNA [2]; [5]): 77%

584168 (k[5mC]*kT*kG*dA*dT*dT*dA*dG*d[5mC]*dT*dA*dT*dG*kA*k[5mC]*k[5mC]; antisense) [compound 584168]
percent inhibition of AR, 46.9 nM (AR mRNA [1]; [6]): 5%
percent inhibition of AR, 187.5 nM (AR mRNA [1]; [6]): 32%
percent inhibition of AR, 750.0 nM (AR mRNA [1]; [6]): 70%
percent inhibition of AR, 3000.0 nM (AR mRNA [1]; [6]): 91%
IC50 (AR mRNA [1]; [6]): 320 nM
% inhibition (AR mRNA [2]; Table 24, 1,000 nM oligonucleotide, electroporation, approximately 24 hours, relative to untreated control): 70%

549377 (kA*kG*kG*dA*dT*dG*dA*dG*dG*dA*dA*dG*d[5mC]*kG*kG*k[5mC]; antisense) [compound 549377]
percent inhibition of AR (AR mRNA [1]; 55.6 nM, ~16 h, Table 3): 13%
percent inhibition of AR (AR mRNA [1]; 166.7 nM, ~16 h, Table 3): 52%
percent inhibition of AR (AR mRNA [1]; 500.0 nM, ~16 h, Table 3): 72%
percent inhibition of AR (AR mRNA [1]; 1500.0 nM, ~16 h, Table 3): 93%
IC50 (AR mRNA [1]; ~16 h, Table 3): 216 nM
% inhibition (AR mRNA [2]; [5]): 90%

583835 (kG*kA*kA*dG*d[5mC]*dT*dG*dT*dT*d[5mC]*d[5mC]*d[5mC]*d[5mC]*kT*kG*kG; antisense) [compound 583835]
percent inhibition of AR, 46.9 nM (AR mRNA [1]; [7]): 20%
percent inhibition of AR, 187.5 nM (AR mRNA [1]; [7]): 55%
percent inhibition of AR, 750.0 nM (AR mRNA [1]; [7]): 74%
percent inhibition of AR, 3000.0 nM (AR mRNA [1]; [7]): 88%
IC50 (AR mRNA [1]; [7]): 190 nM
% inhibition (AR mRNA [2]; [8]): 44%

583850 (kG*kG*kA*d[5mC]*dG*d[5mC]*dA*d[5mC]*dA*dG*d[5mC]*dG*dG*kG*kT*kG; antisense) [compound 583850]
percent inhibition of AR, 46.9 nM (AR mRNA [1]; [7]): 9%
percent inhibition of AR, 187.5 nM (AR mRNA [1]; [7]): 21%
percent inhibition of AR, 750.0 nM (AR mRNA [1]; [7]): 54%
percent inhibition of AR, 3000.0 nM (AR mRNA [1]; [7]): 78%
IC50 (AR mRNA [1]; [7]): 600 nM
% inhibition (AR mRNA [2]; [8]): 38%

584111 (kG*kT*kT*dT*dT*d[5mC]*dA*dA*dA*dT*dG*d[5mC]*dA*kG*k[5mC]*k[5mC]; antisense) [compound 584111]
percent inhibition of AR, 46.9 nM (AR mRNA [1]; [9]): 22%
percent inhibition of AR, 187.5 nM (AR mRNA [1]; [9]): 30%
percent inhibition of AR, 750.0 nM (AR mRNA [1]; [9]): 59%
percent inhibition of AR, 3000.0 nM (AR mRNA [1]; [9]): 84%
IC50 (AR mRNA [1]; [9]): 330 nM
% inhibition (AR mRNA [2]; [4]): 33%

583564 (antisense kG*k[5mC]*kT*dT*d[5mC]*d[5mC]*dT*d[5mC]*d[5mC]*dG*dA*dG*dT*k[5mC]*kT*kT) [compound 583564]
percent inhibition of AR, 46.9 nM (AR mRNA [1]; [10]): 16%
percent inhibition of AR, 187.5 nM (AR mRNA [1]; [10]): 33%
percent inhibition of AR, 750.0 nM (AR mRNA [1]; [10]): 55%
percent inhibition of AR, 3000.0 nM (AR mRNA [1]; [10]): 74%
IC50 (AR mRNA [1]; [10]): 520 nM
% inhibition (AR mRNA [2]; 500 nM ASO, ~24 h, Table 16): 45%

585259 (eA*kA*kG*kT*dT*dG*dT*dA*dG*dT*dA*dG*dT*k[5mC]*kG*k[5mC]) [compound 585259]
% inhibition (AR mRNA [2]; 1,000 nM ASO, ~24 h, Table 13): 71%

549345 (kT*k[5mC]*kT*dG*dG*dA*dA*d[5mC]*dA*dG*dA*dT*dT*k[5mC]*kT*kG; antisense) [compound 549345]
% inhibition (AR mRNA [2]; [5]): 82%

585265 (eA*eA*kG*kT*dT*dG*dT*dA*dG*dT*dA*dG*kT*k[5mC]*eG*e[5mC]) [compound 585265]
% inhibition (AR mRNA [2]; 1,000 nM ASO, ~24 h, Table 13): 69%
